*1 amine or outer side, *2 acyl side, *3 side chain or, on linkers, in order; H or OH if unused. Where a SMILES comes first, the peptide text is derived from it. Bridges are numbered along the chain shown (N, C = ends). Roman numbers before positions name the chains, in order. [ ]: non-standard residue; d: D form. Actinocin(9to1) = Cc1c2oc3c(C)ccc(C(=O)[*:1])c3nc-2c(C(=O)[*:2])c(N)c1=O; NMeV = CN[C@H](C(=O)O)C(C)C; Sar = CNCC(=O)O

The values below come from patent US20050260555A1, “Chemosensitivity measurement using caspase activity” (Evotec Analytical Systems GmbH, priority 1999, published 2005).

Holding throughout (format): cell-based
One test deals with U937 cells. Briefly: Chemosensitivity of U937 cells, accumulated caspase activity. The settings on record: cell line U937, FIG. 3; for effectiveness (apoptosis induction) as concentration increases: average from three independent experiments. The method, then: (§1) This object is achieved by a method for determining the chemosensitivity of cells towards at least one substance by measuring the apoptosis induced by said at least one substance, wherein the apoptosis is determined from the accumulated caspase activity of a sample comprising cells and a medium by adding said at least one substance to the sample followed by incubation, and measuring the accumulated caspase activity in the sample upon disruption of the cells without previously separating off the cells. In particular, the method according to the invention permits the use of substrates which are hardly cell-permeating or not cell-permeating at all.
(§2) It is essential that the accumulated caspase activity is measured. In this approach, cells, e.g., tumor cells of a patient, are incubated with at least one substance (e.g., cytostatic agent) for an extended period of time so that all effective pharmaceuticals, even the slowly acting, have had enough time to induce apoptosis. Subsequently, for example, a substrate present in a lysis buffer is added, and after the cell lysis has been effected, the total caspase activity formed, i.e., the accumulated activity, of the cellular suspension is measured. […] The conventionally determined (with a washing step) caspase activity increases at the same rate as the accumulated caspase activity, but decreases when the secondary necrosis begins (see FIG. 1). Thus, the principle of measuring the accumulated caspase activity permits to detect the effect of substances on the cells by a single caspase activity measurement. This test has a low need of cells and can be performed as a routine test by laboratory or technical assistants within a short time. Due to the easy automation, the personnel expenditure for performing the test is low. Since the test can be performed on ELISA reading devices, which are available everywhere, no investment in equipment is necessary. Miniaturization is possible to further reduce the consumption of materials. It could be shown that cells can be kept in culture for some days in less than 10 μl of medium. The reduction of the number of cells per sample compartment from 100 to 1000 per test enables highly parallel analyses of samples with extremely few cells from patients, e.g., from fine needle biopsies. The low need of cells also permits the high throughput screening (HTS) of unknown substances for anti-tumor activity.
The caspase activity of 250 000 Jurkat cells in 100 μl of medium was determined after different incubation times with 1 μg/ml actinomycin D both conventionally and according to the method of accumulated caspase activity according to the invention. Thus, 100 μl of Jurkat cells (2.5×10^6/ml) was incubated in the presence of actinomycin D at 5% CO2 and 37° C. in RPMI medium with 10% FCS and Pen/Strep. After the incubation, the cells were centrifuged by a conventional method and washed with PBS. The pellet was resuspended in 200 μl of lysis buffer, incubated on ice for 10 min and frozen at −20° C. The accumulated caspase activity was determined by mixing 100 μl of the cells incubated with actinomycin D, directly in suspension, with 100 μl of 2× lysis buffer. The lysate was also frozen at −20° C. All lysates were simultaneously thawed, and aminocoumarin-DEVD was added. At room temperature, the release of fluorescent aminocoumarin by caspase was monitored every 5 min over a period of 2 h. From the linear increase of the signal, the slope was calculated as a measure of caspase activity. The spontaneous caspase activities of the Jurkat cells in the absence of actinomycin D, not shown in the Figure, increase with time, but remain lower than 4 min^−1.
The chemosensitivities of U937 and HL60 cells towards the cytostatic agents indicated in FIGS. 3 and 4 were tested in the stated concentration ranges.
The effect of four cytostatic agents on the cell line U937 was tested. Each data point represents the average from three independent experiments.

The test system of another test is HL60 cells. The test can be described thus: Chemosensitivity of HL60 cells, accumulated caspase activity. To be noted: promyeloic HL60 cells. The method, then:
as §1
as §2, with “The reduction of the number of cells per sample compartment from 100 to 1000 per test enables highly parallel analyses of samples with extremely few cells from patients, e.g., from fine needle biopsies. The low need of cells also permits the high throughput screening (HTS) of unknown substances for anti-tumor activity.” left out
The caspase activity of 250 000 Jurkat cells in 100 μl of medium was determined after different incubation times with 1 μg/ml actinomycin D both conventionally and according to the method of accumulated caspase activity according to the invention. […] The accumulated caspase activity was determined by mixing 100 μl of the cells incubated with actinomycin D, directly in suspension, with 100 μl of 2× lysis buffer. […] At room temperature, the release of fluorescent aminocoumarin by caspase was monitored every 5 min over a period of 2 h. From the linear increase of the signal, the slope was calculated as a measure of caspase activity. […]

Test [1] relates to isolated cells from the peripheral blood (PBMNC) of healthy volunteers. The test can be described thus: Chemosensitivity of PBMNC, caspase activity. To be noted: PBMNC of healthy subjects; for concentration by which caspase activity can be induced: average from three independent experiments. The method, then: as §1, §2
For establishing the test for peripheral blood or bone marrow, isolated cells from the peripheral blood (PBMNC) of healthy volunteers were tested first, taking care that acute infections, as frequently encountered in the fall/winter season, could be excluded. FIGS. 5 and 6 illustrate the results of the studies with two cytostatic agents.
As compared to tested leukemia cell lines, the PBMNCs respond later to daunorubicin.

Regarding `Cc1c2oc3c(C)ccc(C(=O)N[C@@H]4C(=O)N[C@H](C(C)C)C(=O)N5CCC[C@H]5C(=O)N(C)CC(=O)N(C)[C@@H](C(C)C)C(=O)O[C@@H]4C)c3nc-2c(C(=O)N[C@@H]2C(=O)N[C@H](C(C)C)C(=O)N3CCC[C@H]3C(=O)N(C)CC(=O)N(C)[C@@H](C(C)C)C(=O)O[C@@H]2C)c(N)c1=O` [actinomycin D] (I: T[dV]P[Sar][NMeV] / II: T[dV]P[Sar][NMeV]; ester I:1-I:C, II:1-II:C; linker I:N-II:N via Actinocin(9to1)), in the test on U937 cells, the “maximum inducible caspase activity” value was “highest” and the “effectiveness (apoptosis induction) as concentration increases” value (“effectiveness … as concentration increases” for short) was “also increases”. The “induced caspase activities (comparison between agents)” value in the test with HL60 cells was “higher caspase activities than Ara-C and prednisolone”.
As to `COc1cccc2c1C(=O)c1c(O)c3c(c(O)c1C2=O)C[C@@](O)(C(C)=O)C[C@@H]3O[C@H]1C[C@H](N)[C@H](O)[C@H](C)O1` [daunorubicin], in the test on U937 cells, the “maximum inducible caspase activity” value was “significantly higher” and the “effectiveness … as concentration increases” value was “also increases”. In test [1], the “plateau (unchanging maximum caspase activity)” value was “not reached for the subjects NP1 and NP5 to NP8, and only roughly so for the subjects NP2 to NP4”; the “response compared to tested leukemia cell lines” value is on record as “respond later”; the “concentration by which caspase activity can be induced” value is more than 50 ng/mL. Besides, the “induced caspase activities (comparison between agents)” value in the test on HL60 cells is “higher caspase activities than Ara-C and prednisolone”.
Turning to `C[C@]12C=CC(=O)C=C1CC[C@@H]1[C@@H]2[C@@H](O)C[C@@]2(C)[C@H]1CC[C@]2(O)C(=O)CO` [prednisolone], in the test on U937 cells, the “effectiveness … as concentration increases” value is listed as “no or but a slight apoptosis induction”. In the test on HL60 cells (apoptosis signal decreases at higher concentrations), the “concentration at maximum in caspase activity” value is on record as “about 700 ng/ml”.
Take `Nc1ccn([C@@H]2O[C@H](CO)[C@@H](O)[C@@H]2O)c(=O)n1` [Ara-C, cytosine arabinoside (Ara-C)]: in the test with U937 cells, the “maximum inducible caspase activity” value is “relatively low” and the “effectiveness … as concentration increases” value is reported as “also increases”. In test [1], the “plateau (unchanging maximum caspase activity)” value is listed as “not reached for any of the tested PBMNCs” and the “concentration by which caspase activity can be induced” value was more than 200 ng/mL. Moreover, the “maximum inducible caspase activity reached at the highest concentration measured” value with HL60 cells is recorded as “appears not yet to have reached the maximum caspase activity”.
